# From patent US10435399B2, “HDAC6 inhibitory heterocyclic compound” (TAKEDA PHARMACEUTICAL COMPANY LIMITED, priority 2017, dated 2019)
# Molecular target: T1, HDAC6 enzyme (Homo sapiens, UniProt Q9UBN7)
# T1 construct: transducing full length HDAC6 gene into Sf-9 insect cells; GST; purchased SignalChem; host or cells: Sf-9 insect cells
# T1 sequence (Q9UBN7 1-1215): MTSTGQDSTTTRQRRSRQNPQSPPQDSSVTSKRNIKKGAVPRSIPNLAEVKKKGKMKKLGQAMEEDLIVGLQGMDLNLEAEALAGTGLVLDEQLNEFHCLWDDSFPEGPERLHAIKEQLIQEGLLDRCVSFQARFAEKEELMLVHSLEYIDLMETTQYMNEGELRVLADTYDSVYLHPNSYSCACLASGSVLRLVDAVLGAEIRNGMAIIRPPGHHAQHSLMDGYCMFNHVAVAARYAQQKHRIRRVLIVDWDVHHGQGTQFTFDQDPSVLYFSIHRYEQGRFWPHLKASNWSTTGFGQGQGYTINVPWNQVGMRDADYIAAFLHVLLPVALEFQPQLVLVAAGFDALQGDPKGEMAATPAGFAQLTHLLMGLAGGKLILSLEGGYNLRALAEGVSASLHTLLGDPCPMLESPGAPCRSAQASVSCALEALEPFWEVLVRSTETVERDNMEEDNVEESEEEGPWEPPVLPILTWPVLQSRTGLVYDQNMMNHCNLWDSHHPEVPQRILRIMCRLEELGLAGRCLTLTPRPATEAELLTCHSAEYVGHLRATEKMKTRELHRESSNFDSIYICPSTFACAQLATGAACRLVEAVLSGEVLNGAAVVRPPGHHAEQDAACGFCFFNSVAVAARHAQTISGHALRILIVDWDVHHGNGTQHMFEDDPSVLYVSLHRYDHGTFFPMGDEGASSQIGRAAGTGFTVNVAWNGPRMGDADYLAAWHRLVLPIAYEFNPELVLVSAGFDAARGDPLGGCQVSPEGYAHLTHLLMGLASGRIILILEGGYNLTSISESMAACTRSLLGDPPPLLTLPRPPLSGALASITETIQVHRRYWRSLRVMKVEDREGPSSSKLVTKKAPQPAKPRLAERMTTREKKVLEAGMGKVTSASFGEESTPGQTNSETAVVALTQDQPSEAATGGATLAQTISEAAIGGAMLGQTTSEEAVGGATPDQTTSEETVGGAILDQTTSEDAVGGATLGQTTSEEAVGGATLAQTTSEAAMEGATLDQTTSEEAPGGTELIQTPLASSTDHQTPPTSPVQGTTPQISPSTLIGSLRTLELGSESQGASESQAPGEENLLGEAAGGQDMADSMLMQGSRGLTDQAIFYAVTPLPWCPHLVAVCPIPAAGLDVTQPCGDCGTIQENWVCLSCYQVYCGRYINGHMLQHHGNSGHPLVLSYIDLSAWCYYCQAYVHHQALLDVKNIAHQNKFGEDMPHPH
# Assay: HDAC6 enzyme inhibitory activity (HDAC-Glo I/II Assay kit)
# Format: biochemical
# Details: 10 μM; wells without enzyme = 100% inhibition; read-out: HDAC6 inhibitory rate (%) (10 μM)
# Outline: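 Inhibition is calculated as relative activity, taking luminescence in enzyme-free wells as complete inhibition. The enzyme, full-length and GST-purified after Sf-9 expression, was exposed to compound for 60 min at room temperature before a 20 min HDAC-Glo reaction.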
row,SMILES,inhibition at 10 µM
1,"Cn1cc(-c2cncc(F)c2)c(N2Cc3ccc(-c4nnc(C(F)F)o4)cc3C2=O)n1 [Example 459, 6-(5-(difluoro-methyl)-1,3,4-oxadiazol-2-yl)-2-(4-(5-fluoro-pyridin-3-yl)-1-methyl-1H-pyrazol-3-yl) isoindolin-1-one]",97%
2,"Cn1cc(-c2ccccc2F)c(N2Cc3ccc(-c4nnc(C(F)F)o4)cc3C2=O)n1 [Example 460, 6-(5-(difluoro-methyl)-1,3,4-oxadiazol-2-yl)-2-(4-(2-fluoro-phenyl)-1-methyl-1H-pyrazol-3-yl) isoindolin-1-one]",102%
3,"CCC(=O)N[C@@H]1CCCC[C@H]1N1Cc2ncc(-c3nnc(C(F)F)o3)cc2C1=O [Example 461, N-((1R,2R)-2-(3-(5-(difluoro-methyl)-1,3,4-oxadiazol-2-yl)-5-oxo-5,7-dihydro-6H-pyrrolo[3,4-b]pyridin-6-yl)cyclohexyl) propanamide]",100%
4,"CCCC(=O)N[C@@H]1CCCC[C@H]1N1Cc2ncc(-c3nnc(C(F)F)o3)cc2C1=O [Example 462, N-((1R,2R)-2-(3-(5-(difluoro-methyl)-1,3,4-oxadiazol-2-yl)-5-oxo-5,7-dihydro-6H-pyrrolo[3,4-b]pyridin-6-yl)cyclohexyl) butanamide]",100%
5,"O=C(N[C@@H]1CCCC[C@H]1N1Cc2ncc(-c3nnc(C(F)F)o3)cc2C1=O)C1CC1 [Example 463, N-((1R,2R)-2-(3-(5-(difluoro-methyl)-1,3,4-oxadiazol-2-yl)-5-oxo-5,7-dihydro-6H-pyrrolo[3,4-b]pyridin-6-yl)cyclohexyl) cyclopropane-carboxamide]",101%
6,"O=C(N[C@@H]1CCCC[C@H]1N1Cc2ncc(-c3nnc(C(F)F)o3)cc2C1=O)C1CCC1 [Example 464, N-((1R,2R)-2-(3-(5-(difluoro-methyl)-1,3,4-oxadiazol-2-yl)-5-oxo-5,7-dihydro-6H-pyrrolo[3,4-b]pyridin-6-yl)cyclohexyl) cyclobutane-carboxamide]",101%
7,"O=C(N[C@@H]1CCCC[C@H]1N1Cc2ncc(-c3nnc(C(F)F)o3)cc2C1=O)c1ccccc1 [Example 465, N-((1R,2R)-2-(3-(5-(difluoro-methyl)-1,3,4-oxadiazol-2-yl)-5-oxo-5,7-dihydro-6H-pyrrolo[3,4-b]pyridin-6-yl)cyclohexyl) benzamide]",99%
8,"O=C(Cc1ccccc1)N[C@@H]1CCCC[C@H]1N1Cc2ncc(-c3nnc(C(F)F)o3)cc2C1=O [Example 466, N-((1R,2R)-2-(3-(5-(difluoro-methyl)-1,3,4-oxadiazol-2-yl)-5-oxo-5,7-dihydro-6H-pyrrolo[3,4-b]pyridin-6-yl)cyclohexyl)-2-phenyl-acetamide]",100%
9,"O=C1c2cc(-c3nnc(C(F)F)o3)ccc2CN1c1ccc(F)cc1-c1ccn[nH]1 [Example 467, 6-(5-(difluoro-methyl)-1,3,4-oxadiazol-2-yl)-2-(4-fluoro-2-(1H-pyrazol-5-yl)phenyl) isoindolin-1-one]",101%
10,"Cn1cc(-c2cc(F)cc(C#N)c2)c(N2Cc3ccc(-c4nnc(C(F)F)o4)cc3C2=O)n1 [Example 468, 3-(3-(6-(5-(difluoro-methyl)-1,3,4-oxadiazol-2-yl)-1-oxo-1,3-dihydro-2H-isoindol-2-yl)-1-methyl-1H-pyrazol-4-yl)-5-fluoro-benzonitrile]",100%
11,"O=C1c2cc(-c3nnc(C(F)F)o3)ccc2CN1[C@@H]1CCC(F)(F)C[C@H]1NC(=O)C(F)(F)C(F)(F)F [Example 469, N-((1R,2R)-2-(6-(5-(difluoromethyl)-1,3,4-oxadiazol-2-yl)-1-oxo-1,3-dihydro-2H-isoindol-2-yl)-5,5-difluorocyclohexyl)-2,2,3,3,3-pentafluoropropanamide]",99%
12,"CC(F)(F)C(=O)N[C@@H]1CC(F)(F)CC[C@H]1N1Cc2ccc(-c3nnc(C(F)F)o3)cc2C1=O [Example 470, N-((1R,2R)-2-(6-(5-(difluoromethyl)-1,3,4-oxadiazol-2-yl)-1-oxo-1,3-dihydro-2H-isoindol-2-yl)-5,5-difluorocyclohexyl)-2,2-difluoropropanamide]",101%
13,"Cn1cc(-c2cc(F)nc(F)c2)c(N2Cc3ccc(-c4nnc(C(F)F)o4)cc3C2=O)n1 [Example 471, 6-(5-(difluoro-methyl)-1,3,4-oxadiazol-2-yl)-2-(4-(2,6-difluoro-pyridin-4-yl)-1-methyl-1H-pyrazol-3-yl) isoindolin-1-one]",100%
14,"O=C1c2cc(-c3nnc(C(F)F)o3)ccc2CN1c1ccnn1-c1cccc(Cl)c1 [Example 472, 2-(1-(3-chloro-phenyl)-1H-pyrazol-5-yl)-6-(5-(difluoro-methyl)-1,3,4-oxadiazol-2-yl) isoindolin-1-one]",100%
15,"O=C1c2cc(-c3nnc(C(F)F)o3)ccc2CN1c1ccnn1-c1ccc(F)cc1 [Example 473, 6-(5-(difluoro-methyl)-1,3,4-oxadiazol-2-yl)-2-(1-(4-fluoro-phenyl)-1H-pyrazol-5-yl) isoindolin-1-one]",99%
16,"Cn1cc(C2=CCC(F)(F)CC2)c(N2Cc3ccc(-c4nnc(C(F)F)o4)cc3C2=O)n1 [Example 474, 2-(4-(4,4-difluorocyclo-hex-1-en-1-yl)-1-methyl-1H-pyrazol-3-yl)-6-(5-(difluoro-methyl)-1,3,4-oxadiazol-2-yl) isoindolin-1-one]",99%
17,"C[C@@H](c1ccccc1)N1Cc2ncc(-c3nnc(C(F)F)o3)cc2C1=O [Example 475, 3-(5-(difluoro-methyl)-1,3,4-oxadiazol-2-yl)-6-((1S)-1-phenylethyl)-6,7-dihydro-5H-pyrrolo [3,4-b]pyridin-5-one]",100%
18,"C[C@H](c1ccccc1)N1Cc2ncc(-c3nnc(C(F)F)o3)cc2C1=O [Example 476, 3-(5-(difluoro-methyl)-1,3,4-oxadiazol-2-yl)-6-((1R)-1-phenylethyl)-6,7-dihydro-5H-pyrrolo [3,4-b]pyridin-5-one]",100%
19,"COc1ccc(N2Cc3ccc(-c4nnc(C(F)F)o4)cc3C2=O)c(Br)c1 [Example 477, 2-(2-bromo-4-methoxy-phenyl)-6-(5-(difluoro-methyl)-1,3,4-oxadiazol-2-yl) isoindolin-1-one]",95%
20,"O=C1c2cc(-c3nnc(C(F)F)o3)cnc2CN1Cc1ccccc1OCC(F)F [Example 478, 6-(2-(2,2-difluoroethoxy)benzyl)-3-(5-(difluoro-methyl)-1,3,4-oxadiazol-2-yl)-6,7-dihydro-5H-pyrrolo [3,4-b]pyridin-5-one]",100%
21,"O=C1c2cc(-c3nnc(C(F)F)o3)cnc2CN1Cc1cccc(-c2cnn(C(F)F)c2)c1 [Example 479, 3-(5-(difluoro-methyl)-1,3,4-oxadiazol-2-yl)-6-(3-(1-(difluoro-methyl)-1H-pyrazol-4-yl)benzyl)-6,7-dihydro-5H-pyrrolo[3,4-b] pyridin-5-one]",100%
22,"Cn1cc(C2CCC(F)(F)CC2)c(N2Cc3ccc(-c4nnc(C(F)F)o4)cc3C2=O)n1 [Example 480, 2-(4-(4,4-difluorocyclo-hexyl)-1-methyl-1H-pyrazol-3-yl)-6-(5-(difluoro-methyl)-1,3,4-oxadiazol-2-yl) isoindolin-1-one]",101%
